The source of these data is US8129366B2, “VLA-4 inhibitory drug” (Daiichi Sankyo Company, Limited, priority 2005, dated 2012).

Data set [1] concerns the target T1, hα4 and β1 integrins (Homo sapiens, UniProt P05556+P13612).
T1 construct: expressed in transfected cells; host or cells: CHO cells
Put plainly: In vitro inhibition of binding between CHO cells expressing hα4 and β1 integrins and Eu3+-hVCAM-1 D1D7-IgG. To be noted: for pKi: CHO cells expressing hα4 and β1 integrins, Eu3+-hVCAM-1 D1D7-IgG ligand, without HSA; for pIC50: in the presence of 3% human serum albumin (HSA final concentration 3%). An outline of the steps:
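Transfected CHO cells, cultured 2 days, were incubated with compound and Eu³⁺-hVCAM-1 D1D7-IgG (diluted to 2 nM) for 1 h at room temperature. Buffer was 25 mM HEPES pH 7.5 with 1 mM Ca²⁺, 1 mM Mg²⁺, 4 mM Mn²⁺ and 0.1% BSA, ±3% HSA final. Cells were washed at 4 °C and read by DELFIA time-resolved fluorescence; Ki was derived from IC50 using the Scatchard Kd.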

Data set [2] can be described thus: Solubility test in first and second liquid of the Japanese Pharmacopoeia.
Method: The solubilities of the substance under test in the first liquid (JP1, pH=1.2) of the Japanese Pharmacopoeia and the second liquid (JP2, pH=6.8) of the Japanese Pharmacopoeia, were evaluated.
Setting [3] is: first liquid of the Japanese Pharmacopoeia (JP1), pH 1.2, simulated gastric fluid, First liquid of Japanese Pharmacopoeia (μg/mL), JP1, pH=1.2.
[4] abbreviates: second liquid of the Japanese Pharmacopoeia (JP2), pH 6.8, aqueous buffer, Second liquid of Japanese Pharmacopoeia (μg/mL), JP2, pH=6.8.

The pKi is the negative decadic logarithm of the Ki, by convention in mol/L. Low readings indicate a high Ki, high ones a low Ki. Usually pIC50 stands for −log10 of the IC50, conventionally taken in molar units. The solubility is the dissolved amount per volume that the medium holds. A higher solubility goes with a readily soluble substance.

pIC50, pKi: −log10 of the molar value. Converted amounts (≈) assume the structure as drawn.

T1 sequence (P13612 34-1032): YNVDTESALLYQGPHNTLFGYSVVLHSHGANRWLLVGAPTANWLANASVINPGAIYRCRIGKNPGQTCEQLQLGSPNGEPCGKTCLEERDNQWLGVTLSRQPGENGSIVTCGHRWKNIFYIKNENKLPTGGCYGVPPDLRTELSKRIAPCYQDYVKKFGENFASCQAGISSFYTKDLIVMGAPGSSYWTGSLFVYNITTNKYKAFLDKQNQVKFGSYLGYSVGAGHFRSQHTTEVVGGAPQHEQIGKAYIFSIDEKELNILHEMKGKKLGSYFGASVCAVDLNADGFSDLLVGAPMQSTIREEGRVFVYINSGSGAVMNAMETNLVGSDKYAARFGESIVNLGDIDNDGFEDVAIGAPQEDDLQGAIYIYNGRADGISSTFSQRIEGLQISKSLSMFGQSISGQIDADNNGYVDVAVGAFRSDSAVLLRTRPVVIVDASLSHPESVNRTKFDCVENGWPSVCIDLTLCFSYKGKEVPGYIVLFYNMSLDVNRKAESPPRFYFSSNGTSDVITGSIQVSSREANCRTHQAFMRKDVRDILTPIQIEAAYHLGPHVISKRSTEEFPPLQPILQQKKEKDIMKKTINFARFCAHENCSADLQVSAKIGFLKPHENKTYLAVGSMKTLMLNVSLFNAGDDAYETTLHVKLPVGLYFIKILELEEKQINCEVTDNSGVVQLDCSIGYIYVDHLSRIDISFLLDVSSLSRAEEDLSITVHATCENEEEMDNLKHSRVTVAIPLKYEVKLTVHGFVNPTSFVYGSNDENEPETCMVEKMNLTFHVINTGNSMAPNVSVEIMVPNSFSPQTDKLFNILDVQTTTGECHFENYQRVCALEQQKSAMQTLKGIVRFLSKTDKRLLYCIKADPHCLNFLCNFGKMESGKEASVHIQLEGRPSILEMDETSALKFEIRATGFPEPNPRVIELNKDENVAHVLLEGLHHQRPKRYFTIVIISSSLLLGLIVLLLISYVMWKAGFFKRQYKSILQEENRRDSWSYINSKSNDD
T1 sequence (P05556 21-798): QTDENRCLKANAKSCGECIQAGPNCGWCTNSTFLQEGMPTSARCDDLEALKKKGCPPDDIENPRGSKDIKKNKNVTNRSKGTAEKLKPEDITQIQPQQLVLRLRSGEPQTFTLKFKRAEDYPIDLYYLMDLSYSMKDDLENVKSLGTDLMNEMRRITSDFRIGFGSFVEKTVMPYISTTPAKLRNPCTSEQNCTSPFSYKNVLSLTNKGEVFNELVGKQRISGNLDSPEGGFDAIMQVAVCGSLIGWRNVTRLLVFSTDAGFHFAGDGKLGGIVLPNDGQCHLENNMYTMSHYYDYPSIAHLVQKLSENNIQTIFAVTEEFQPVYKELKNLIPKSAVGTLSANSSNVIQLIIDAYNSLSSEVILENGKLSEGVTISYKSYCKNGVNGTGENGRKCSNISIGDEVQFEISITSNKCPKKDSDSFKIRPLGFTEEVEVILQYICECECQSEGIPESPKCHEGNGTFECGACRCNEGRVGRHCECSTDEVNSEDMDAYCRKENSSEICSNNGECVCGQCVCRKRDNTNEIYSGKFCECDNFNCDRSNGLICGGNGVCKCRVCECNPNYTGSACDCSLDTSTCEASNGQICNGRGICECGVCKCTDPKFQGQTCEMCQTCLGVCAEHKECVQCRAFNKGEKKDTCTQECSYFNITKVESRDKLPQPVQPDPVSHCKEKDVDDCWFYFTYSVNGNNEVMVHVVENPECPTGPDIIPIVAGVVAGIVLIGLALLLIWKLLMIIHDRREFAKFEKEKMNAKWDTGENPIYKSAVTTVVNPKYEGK

The molecule `CO[C@H]1CCN([C@H]2C[C@@H](CO[C@H]3CC[C@H](C(=O)O)CC3)N(C(=O)Cc3cc(Cl)c(NC(=O)c4cn(C)c5ccccc45)cc3Cl)C2)C1` [Example 35, Trans-4-[1-[[2,5-dichloro-4-[(1-methyl-1H-indol-3-ylcarbonyl)amino]phenyl]acetyl]-(4S)-[(3S)-methoxypyrrolidin-1-yl]-(2S)-pyrrolidinylmethoxy]cyclohexanecarboxylic acid] had a negative logarithm of the Ki (pKi) in data set [1] of 8.23. Moreover, the negative logarithm of the IC50 (pIC50) in data set [1] was 7.70. In addition, the solubility in data set [2] (setting [3]) and in data set [2] (setting [4]) was > 2000 µg/mL throughout.

On to `CCO[C@H]1CCN([C@H]2C[C@@H](CO[C@H]3CC[C@H](C(=O)O)CC3)N(C(=O)Cc3cc(Cl)c(NC(=O)c4cn(C)c5ccccc45)cc3Cl)C2)C1` [Example 36, Trans-4-[1-[[2,5-dichloro-4-[(1-methyl-1H-indol-3-ylcarbonyl)amino]phenyl]acetyl]-(4S)-[(3S)-ethoxypyrrolidin-1-yl]-(2S)-pyrrolidinylmethoxy]cyclohexanecarboxylic acid], for which, in data set [1], the pKi is 8.23 and the pIC50 is 7.62. In data set [2] (setting [3]), this molecule had a solubility of 1940 µg/mL (≈ 2770 µM). Moreover, the solubility in data set [2] (setting [4]) stood at 1840 µg/mL (≈ 2630 µM).

For the molecule `CN(C)C(=O)[C@@H]1CCCN1[C@H]1C[C@@H](CO[C@H]2CC[C@H](C(=O)O)CC2)N(C(=O)Cc2cc(Cl)c(NC(=O)c3csc4ccccc34)cc2F)C1` [Example 42], the negative logarithm of the Ki (pKi) in data set [1] was 9.49. Further, the pIC50 in data set [1] was 8.96. Also, the “Solubility, Second liquid of Japanese Pharmacopoeia” value in data set [2] (JP2, pH=6.8) came out at 1931 µg/mL. The solubility in data set [2] (setting [3]) and in data set [2] (setting [4]) was > 2000 µg/mL throughout.

For the molecule `COC[C@@H]1C[C@H](OC)CN1[C@H]1C[C@@H](CO[C@H]2CC[C@H](C(=O)O)CC2)N(C(=O)Cc2cc(Cl)c(NC(=O)c3cn(C)c4ccccc34)cc2Cl)C1` [Example 46, Trans-4-[1-[[2,5-dichloro-4-[(1-methyl-1H-indol-3-ylcarbonyl)amino]phenyl]acetyl]-(4S)-[(2S)-methoxymethyl-(4S)-methoxypyrrolidin-1-yl]-(2S)-pyrrolidinylmethoxy]cyclohexanecarboxylic acid], in data set [1], the pKi is 8.14 and the pIC50 was 7.82. In addition, in data set [2] (setting [3]), the concentration in solution (solubility) was 1200 µg/mL (≈ 1640 µM). Besides, the concentration in solution in data set [2] (setting [4]) (solubility) was 1200 µg/mL (≈ 1640 µM).

On to `CO[C@H]1CN([C@H]2C[C@@H](CO[C@H]3CC[C@H](C(=O)O)CC3)N(C(=O)Cc3cc(Cl)c(NC(=O)c4cn(C)c5ccccc45)cc3Cl)C2)C[C@@H]1OC` [Example 51, Trans-4-[1-[[2,5-dichloro-4-[(1-methyl-1H-indol-3-ylcarbonyl)amino]phenyl]acetyl]-(4S)-[(3S,4S)-dimethoxypyrrolidin-1-yl]-(2S)-pyrrolidinylmethoxy]cyclohexanecarboxylic acid], for which, in data set [1], the negative-log Ki (pKi) was 8.24 and the pIC50 is 7.74. This molecule showed a solubility in data set [2] (setting [3]) of 1000 µg/mL (≈ 1400 µM). In addition, the solubility in data set [2] (setting [4]) turned out to be 1000 µg/mL (≈ 1400 µM).

In turn, `CO[C@H]1CN([C@H]2C[C@@H](CO[C@H]3CC[C@H](C(=O)O)CC3)N(C(=O)Cc3cc(Cl)c(NC(=O)c4csc5ccccc45)cc3F)C2)C[C@@H]1OC` [Example 52, Trans-4-[1-[[4-[(benzo[b]thiophen-3-ylcarbonyl)amino]-5-chloro-2-fluorophenyl]acetyl]-(4S)-[(3S,4S)-dimethoxypyrrolidin-1-yl]-(2S)-pyrrolidinylmethoxy]cyclohexanecarboxylic acid] showed a pKi in data set [1] of 8.92. The pIC50 in data set [1] is 8.08. For the same molecule, the solubility in data set [2] (setting [3]) and in data set [2] (setting [4]) was 1000 µg/mL (≈ 1420 µM) each time.

Take `CO[C@H]1CN([C@H]2C[C@@H](CO[C@H]3CC[C@H](C(=O)O)CC3)N(C(=O)Cc3cc(Cl)c(NC(=O)c4coc5ccccc45)cc3F)C2)C[C@@H]1OC` [Example 53, Trans-4-[1-[[4-[(benzo[b]furan-3-ylcarbonyl)amino]-5-chloro-2-fluorophenyl]acetyl]-(4S)-[(3S,4S)-dimethoxypyrrolidin-1-yl]-(2S)-pyrrolidinylmethoxy]cyclohexanecarboxylic acid]: in data set [1], the pKi was 8.70 and the pIC50 is 7.96. This molecule displayed a solubility in data set [2] (setting [3]) of 1000 µg/mL (≈ 1460 µM). Also, the solubility in data set [2] (setting [4]) came to 1000 µg/mL (≈ 1460 µM).

As to `CO[C@H]1CN([C@H]2C[C@@H](CO[C@H]3CC[C@H](C(=O)O)CC3)N(C(=O)Cc3cc(Cl)c(NC(=O)c4coc5ccccc45)cc3Cl)C2)C[C@@H]1OC` [Example 54, Trans-4-[1-[[4-[(benzo[b]furan-3-ylcarbonyl)amino]-2,5-dichlorophenyl]acetyl]-(4S)-[(3S,4S)-dimethoxypyrrolidin-1-yl]-(2S)-pyrrolidinylmethoxy]cyclohexanecarboxylic acid], in data set [1], the pKi was 8.47 and the negative logarithm of the IC50 (pIC50) was 7.60. The same molecule came in with a solubility in data set [2] (setting [3]) of 1000 µg/mL (≈ 1420 µM). In data set [2] (setting [4]), this molecule had a solubility of 1000 µg/mL (≈ 1420 µM).

As for `CO[C@H]1CN([C@H]2C[C@@H](CO[C@H]3CC[C@H](C(=O)O)CC3)N(C(=O)Cc3cc(Cl)c(NC(=O)c4coc5ccccc45)cc3Cl)C2)C[C@H]1OC` [Example 60, Trans-4-[1-[[4-[(benzo[b]furan-3-ylcarbonyl)amino]-2,5-dichlorophenyl]acetyl]-(4S)-(cis-3,4-dimethoxypyrrolidin-1-yl)-(2S)-pyrrolidinylmethoxy]cyclohexanecarboxylic acid], in data set [1], the pKi is 8.10. The pIC50 in data set [1] is 7.74. Further, the solubility in data set [2] (setting [3]) and in data set [2] (setting [4]) was 1000 µg/mL (≈ 1420 µM) in each case.

As for `CCO[C@H]1CN([C@H]2C[C@@H](CO[C@H]3CC[C@H](C(=O)O)CC3)N(C(=O)Cc3cc(Cl)c(NC(=O)c4cn(C)c5ccccc45)cc3Cl)C2)C[C@H]1OCC` [Example 63, Trans-4-[1-[[2,5-dichloro-4-[(1-methyl-1H-indol-3-ylcarbonyl)amino]phenyl]acetyl]-(4S)-(3,4-cis-diethoxypyrrolidin-1-yl)-(2S)-pyrrolidinylmethoxy]cyclohexanecarboxylic acid], in data set [1], the negative logarithm of the Ki (pKi) was 8.33 and the negative logarithm of the IC50 (pIC50) was 7.64. Also, the concentration in solution in data set [2] (setting [3]) (solubility) was 1000 µg/mL (≈ 1340 µM). Further, in data set [2] (setting [4]), the solubility came out at 1000 µg/mL (≈ 1340 µM).

As for `CC(=O)N[C@H]1CCN([C@H]2C[C@@H](CO[C@H]3CC[C@H](C(=O)O)CC3)N(C(=O)Cc3cc(Cl)c(NC(=O)c4csc5ccccc45)cc3F)C2)C1` [Example 66, Trans-4-[1-[[4-[(benzo[b]thiophen-3-ylcarbonyl)amino]-5-chloro-2-fluorophenyl]acetyl]-(4S)-[(3S)-acetamidopyrrolidin-1-yl]-(2S)-pyrrolidinylmethoxy]cyclohexanecarboxylic acid], in data set [1], the negative logarithm of the Ki (pKi) was 9.38. Moreover, in data set [1], the pIC50 is 7.85. Moreover, the solubility in data set [2] (setting [3]) and in data set [2] (setting [4]) was > 2000 µg/mL in each case.

The molecule `O=C(Nc1cc(Cl)c(CC(=O)N2C[C@@H](N3C[C@@H]4OCO[C@@H]4C3)C[C@H]2CO[C@H]2CC[C@H](C(=O)O)CC2)cc1Cl)c1coc2ccccc12` [Example 73, Trans-4-[1-[[4-[(benzo[b]furan-3-ylcarbonyl)amino]-2,5-dichlorophenyl]acetyl]-(4S)-[(3a,6a-cis)-tetrahydro[1,3]dioxolo[4,5-c]pyrrol-5-yl]-(2S)-pyrrolidinylmethoxy]cyclohexanecarboxylic acid] gave a pKi in data set [1] of 8.72. Besides, in data set [1], the pIC50 is 7.66. Further, the solubility in data set [2] (setting [3]) and in data set [2] (setting [4]) was 1000 µg/mL (≈ 1460 µM) throughout.

Consider `O=C(Nc1cc(F)c(CC(=O)N2C[C@@H](N3C[C@@H]4OCO[C@@H]4C3)C[C@H]2CO[C@H]2CC[C@H](C(=O)O)CC2)cc1Cl)c1coc2ccccc12` [Example 74, Trans-4-[1-[[4-[(benzo[b]furan-3-ylcarbonyl)amino]-5-chloro-2-fluorophenyl]acetyl]-(4S)-[(3a,6a-cis)-tetrahydro[1,3]dioxolo[4,5-c]pyrrol-5-yl]-(2S)-pyrrolidinylmethoxy]cyclohexanecarboxylic acid], for which, in data set [1], the negative-log Ki (pKi) was 8.82. Besides, the pIC50 in data set [1] is 8.06. For the same molecule, the solubility is 1200 µg/mL (≈ 1790 µM) in data set [2] (setting [3]) and 1300 µg/mL (≈ 1940 µM) in data set [2] (setting [4]).

As for `Cn1cc(C(=O)Nc2cc(F)c(CC(=O)N3C[C@@H](N4CCOCC4)C[C@H]3CO[C@H]3CC[C@H](C(=O)O)CC3)cc2Cl)c2ccccc21` [Example 78, Trans-4-[1-[[5-chloro-2-fluoro-4-[(1-methyl-1H-indol-3-ylcarbonyl)amino]phenyl]acetyl]-(4S)-(morpholin-4-yl)-(2S)-pyrrolidinylmethoxy]cyclohexanecarboxylic acid], in data set [1], the pKi is 8.82 and the negative logarithm of the IC50 (pIC50) was 8.28. For the same molecule, the solubility in data set [2] (setting [3]) was > 2000 µg/mL. Also, in data set [2] (setting [4]), the solubility was > 2000 µg/mL.

`C[C@@H]1CN([C@H]2C[C@@H](CO[C@H]3CC[C@H](C(=O)O)CC3)N(C(=O)Cc3ccc(NC(=O)c4nccc5ccccc45)c(Cl)c3)C2)C[C@H](C)O1` [Example 86, Trans-4-[1-[[3-chloro-4-[(isoquinolin-1-ylcarbonyl)amino]phenyl]acetyl]-(4S)-(cis-2,6-dimethylmorpholin-4-yl)-(2S)-pyrrolidinylmethoxy]cyclohexanecarboxylic acid] showed a negative-log Ki (pKi) in data set [1] of 8.35. Also, the pIC50 in data set [1] is 7.57. Moreover, the solubility in data set [2] (setting [3]) is 1300 µg/mL (≈ 1960 µM); in data set [2] (setting [4]), 1200 µg/mL (≈ 1810 µM).

In the case of `C[C@@H]1CN([C@H]2C[C@@H](CO[C@H]3CC[C@H](C(=O)O)CC3)N(C(=O)Cc3ccc(NC(=O)c4coc5ccccc45)c(Cl)c3)C2)C[C@H](C)O1` [Example 87, Trans-4-[1-[[4-[(benzo[b]furan-3-ylcarbonyl)amino]-3-chlorophenyl]acetyl]-(4S)-(cis-2,6-dimethylmorpholin-4-yl)-(2S)-pyrrolidinylmethoxy]cyclohexanecarboxylic acid], in data set [1], the pKi is 9.02 and the negative-log IC50 (pIC50) is 8.09. This molecule also came in with a solubility in data set [2] (setting [3]) of 1200 µg/mL (≈ 1840 µM). Besides, the solubility in data set [2] (setting [4]) came to 1200 µg/mL (≈ 1840 µM).
